PMC5218480 (PLoS ONE, 2017)

Tested on: MV-4-11 cells
Assay: Gene expression microarray analysis (Affymetrix PrimeView) and GSEA
Format: cell-based, human
Design: RFU PODN (11730768_x_at) / Fold change /veh PODN (11730768_x_at) / RFU LINC00158 (11744669_a_at) / Fold change /veh LINC00158 (11744669_a_at) / RFU DUSP10 (11751237_a_at) / Fold change /veh DUSP10 (11751237_a_at) / RFU ID3 (11757404_x_at) / Fold change /veh ID3 (11757404_x_at) / RFU PLEKHG5 (11737974_s_at) / Fold change /veh PLEKHG5 (11737974_s_at) / RFU LRRC4B (11730491_at) / Fold change /veh LRRC4B (11730491_at) / RFU GIMAP4 (11747438_a_at) / Fold change /veh GIMAP4 (11747438_a_at) / RFU KRT8 (11758183_x_at) / Fold change /veh KRT8 (11758183_x_at) / RFU CNN1 (11734310_a_at) / Fold change /veh CNN1 (11734310_a_at) / RFU VPS37D (11726825_at) / Fold change /veh VPS37D (11726825_at) / RFU C10orf10 (11716522_x_at) / Fold change /veh C10orf10 (11716522_x_at) / RFU KIR2DL2 /// KIR2DL4 /// KIR2DL5A /// KIR2DL5B /// KIR2DS1 /// KIR2DS2 /// KIR2DS3 /// KIR2DS4 /// KIR3DL3 /// KIR3DL3 /// KIR3DS1 (11738374_at) / Fold change /veh KIR2DL2 /// KIR2DL4 /// KIR2DL5A /// KIR2DL5B /// KIR2DS1 /// KIR2DS2 /// KIR2DS3 /// KIR2DS4 /// KIR3DL3 /// KIR3DL3 /// KIR3DS1 (11738374_at) / RFU C1QL1 (11718748_at) / Fold change /veh C1QL1 (11718748_at) / RFU TMPRSS4 (11747572_a_at) / Fold change /veh TMPRSS4 (11747572_a_at) / RFU HAMP (11756126_x_at) / Fold change /veh HAMP (11756126_x_at) / RFU RNFT2 (11725882_a_at) / Fold change /veh RNFT2 (11725882_a_at) / RFU NR4A2 (11747474_a_at) / Fold change /veh NR4A2 (11747474_a_at) / RFU ABCC12 (11746883_a_at) / Fold change /veh ABCC12 (11746883_a_at) / RFU TMEM136 (11760407_x_at) / Fold change /veh TMEM136 (11760407_x_at) / RFU CLDN22 /// WWC2 (11732394_at) / Fold change /veh CLDN22 /// WWC2 (11732394_at) / RFU HLA-DPB1 (11760878_x_at) / Fold change /veh HLA-DPB1 (11760878_x_at) / RFU SPINT1 (11716480_a_at) / Fold change /veh SPINT1 (11716480_a_at) / RFU GAP43 (11754022_s_at) / Fold change /veh GAP43 (11754022_s_at) / RFU A4GNT (11735810_at) / Fold change /veh A4GNT (11735810_at) / RFU PRB3 (11715151_x_at) / Fold change /veh PRB3 (11715151_x_at) / RFU TUBB4B (11761932_at) / Fold change /veh TUBB4B (11761932_at) / RFU CAPN14 (11732068_a_at) / Fold change /veh CAPN14 (11732068_a_at) / RFU TMCC2 (11721928_a_at) / Fold change /veh TMCC2 (11721928_a_at) / RFU IRGQ (11745062_a_at) / Fold change /veh IRGQ (11745062_a_at) / RFU FAM174B (11720279_a_at) / Fold change /veh FAM174B (11720279_a_at) / RFU TMPRSS4 (11748680_a_at) / Fold change /veh TMPRSS4 (11748680_a_at) / RFU FAM212B (11763350_a_at) / Fold change /veh FAM212B (11763350_a_at) / RFU PLEKHG5 (11743358_a_at) / Fold change /veh PLEKHG5 (11743358_a_at) / RFU ZSCAN30 (11745921_a_at) / Fold change /veh ZSCAN30 (11745921_a_at) / RFU CMKLR1 (11741424_a_at) / Fold change /veh CMKLR1 (11741424_a_at) / RFU LOC101060620 /// MAPK8IP1 (11723275_at) / Fold change /veh LOC101060620 /// MAPK8IP1 (11723275_at) / RFU SPTSSB (11747773_x_at) / Fold change /veh SPTSSB (11747773_x_at) / RFU PRSS12 (11739890_at) / Fold change /veh PRSS12 (11739890_at) / RFU BIN1 (11741810_x_at) / Fold change /veh BIN1 (11741810_x_at) / RFU WNT11 (11732464_a_at) / Fold change /veh WNT11 (11732464_a_at) / RFU C10orf10 (11716521_a_at) / Fold change /veh C10orf10 (11716521_a_at) / RFU C5orf56 (11738089_at) / Fold change /veh C5orf56 (11738089_at) / RFU CYB561 (11721691_x_at) / Fold change /veh CYB561 (11721691_x_at) / RFU ANKRD19P (11752326_a_at) / Fold change /veh ANKRD19P (11752326_a_at) / RFU OR2T12 /// OR2T33 /// OR2T8 (11738714_s_at) / Fold change /veh OR2T12 /// OR2T33 /// OR2T8 (11738714_s_at) / RFU VCAN (11748164_a_at) / Fold change /veh VCAN (11748164_a_at) / RFU JSRP1 (11732532_at) / Fold change /veh JSRP1 (11732532_at) / RFU KRTAP10-11 (11738290_x_at) / Fold change /veh KRTAP10-11 (11738290_x_at) / RFU MYO3A (11730013_a_at) / Fold change /veh MYO3A (11730013_a_at) / RFU EBF3 (11725865_a_at) / Fold change /veh EBF3 (11725865_a_at) / RFU CAMK2N1 (11719241_x_at) / Fold change /veh CAMK2N1 (11719241_x_at) / RFU C5orf56 (11738088_a_at) / Fold change /veh C5orf56 (11738088_a_at) / RFU OLFML3 (11715873_a_at) / Fold change /veh OLFML3 (11715873_a_at) / RFU LOC100653217 /// NTM (11731650_a_at) / Fold change /veh LOC100653217 /// NTM (11731650_a_at) / RFU MAPK11 (11762145_a_at) / Fold change /veh MAPK11 (11762145_a_at) / RFU FIZ1 (11724087_x_at) / Fold change /veh FIZ1 (11724087_x_at) / RFU OASL (11726364_x_at) / Fold change /veh OASL (11726364_x_at) / RFU SOX15 (11748057_x_at) / Fold change /veh SOX15 (11748057_x_at) / RFU CD79A (11719716_a_at) / Fold change /veh CD79A (11719716_a_at) / RFU HIST1H1D (11736915_at) / Fold change /veh HIST1H1D (11736915_at) / RFU CASKIN2 (11723855_a_at) / Fold change /veh CASKIN2 (11723855_a_at) / RFU LOC730098 (11760151_x_at) / Fold change /veh LOC730098 (11760151_x_at) / RFU OR4N2 (11742367_at) / Fold change /veh OR4N2 (11742367_at) / RFU PRRT2 (11749266_a_at) / Fold change /veh PRRT2 (11749266_a_at) / RFU SNX32 (11753110_a_at) / Fold change /veh SNX32 (11753110_a_at) / RFU CDHR5 (11726645_a_at) / Fold change /veh CDHR5 (11726645_a_at) / RFU RCAN1 (11760418_a_at) / Fold change /veh RCAN1 (11760418_a_at) / RFU FAM167A (11723789_a_at) / Fold change /veh FAM167A (11723789_a_at) / RFU FAM26E (11764081_at) / Fold change /veh FAM26E (11764081_at) / RFU ISYNA1 (11749810_s_at) / Fold change /veh ISYNA1 (11749810_s_at) / RFU ACY1 (11761880_at) / Fold change /veh ACY1 (11761880_at) / RFU 11764098_at / Fold change /veh 11764098_at / RFU SAMD14 (11745864_x_at) / Fold change /veh SAMD14 (11745864_x_at) / RFU NPB (11741838_a_at) / Fold change /veh NPB (11741838_a_at) / RFU TMPRSS6 (11731388_a_at) / Fold change /veh TMPRSS6 (11731388_a_at) / RFU KRTAP10-2 (11738614_at) / Fold change /veh KRTAP10-2 (11738614_at) / RFU ARHGAP8 /// PRR5-ARHGAP8 (11727945_x_at) / Fold change /veh ARHGAP8 /// PRR5-ARHGAP8 (11727945_x_at) / RFU KRTAP5-7 /// NADSYN1 (11734609_at) / Fold change /veh KRTAP5-7 /// NADSYN1 (11734609_at) / RFU RASL12 (11751679_a_at) / Fold change /veh RASL12 (11751679_a_at) / RFU CDKN2B (11736163_a_at) / Fold change /veh CDKN2B (11736163_a_at) / RFU PRF1 (11729649_at) / Fold change /veh PRF1 (11729649_at) / RFU, ZNF638 /// ZNF638-IT1 / Fold change vs veh, ZNF638 /// ZNF638-IT1 / RFU, PANK3 / Fold change vs veh, PANK3 / RFU, SH3YL1 / Fold change vs veh, SH3YL1 / RFU, ZEB2 / Fold change vs veh, ZEB2 / RFU, NRIP1 / Fold change vs veh, NRIP1 / RFU, PTTG1IP / Fold change vs veh, PTTG1IP / RFU, CAPN2 / Fold change vs veh, CAPN2 / RFU, MED14 / Fold change vs veh, MED14 / RFU, SNORA58 / Fold change vs veh, SNORA58 / RFU, C1orf63 / Fold change vs veh, C1orf63 / RFU, LRRFIP1 / Fold change vs veh, LRRFIP1 / RFU, NDUFAF7 / Fold change vs veh, NDUFAF7 / RFU, SLC12A2 / Fold change vs veh, SLC12A2 / RFU, IBTK / Fold change vs veh, IBTK / RFU, ESF1 / Fold change vs veh, ESF1 / Fold change vs veh, TMEM50B / RFU, TAOK1 / Fold change vs veh, TAOK1 / RFU, ACBD3 / Fold change vs veh, ACBD3 / RFU, TMA16 / Fold change vs veh, TMA16 / RFU, RWDD3 / Fold change vs veh, RWDD3 / RFU, BCAT1 / Fold change vs veh, BCAT1 / RFU, EDEM3 / Fold change vs veh, EDEM3 / RFU, TMEM33 / Fold change vs veh, TMEM33 / RFU, WDR75 / Fold change vs veh, WDR75 / RFU, AHCTF1 / Fold change vs veh, AHCTF1 / RFU, TFRC / Fold change vs veh, TFRC / RFU, ZDHHC17 / Fold change vs veh, ZDHHC17 / RFU, NOM1 / Fold change vs veh, NOM1 / RFU, ARL8B / Fold change vs veh, ARL8B / RFU, ZBTB11 / Fold change vs veh, ZBTB11 / RFU, TAMM41 / Fold change vs veh, TAMM41 / RFU, KIAA1704 /// LOC100996395 / Fold change vs veh, KIAA1704 /// LOC100996395 / RFU, ING1 / Fold change vs veh, ING1 / RFU, TRMT61B / Fold change vs veh, TRMT61B / RFU, FUBP3 / Fold change vs veh, FUBP3 / RFU, TP53 / Fold change vs veh, TP53 / RFU, TNKS2 / Fold change vs veh, TNKS2 / RFU, ZFP14 / Fold change vs veh, ZFP14 / RFU, ACTR2 / Fold change vs veh, ACTR2 / RFU, PPP3R1 / Fold change vs veh, PPP3R1 / RFU, PIK3R1 / Fold change vs veh, PIK3R1 / RFU, HNRNPA1 / Fold change vs veh, HNRNPA1 / RFU, RNF170 / Fold change vs veh, RNF170 / RFU, ZNF28 / Fold change vs veh, ZNF28 / RFU, RNGTT / Fold change vs veh, RNGTT / RFU, OGT / Fold change vs veh, OGT / RFU, BRD1 / Fold change vs veh, BRD1 / RFU, MARS / Fold change vs veh, MARS / RFU, ZNF655 / Fold change vs veh, ZNF655 / RFU, FAHD1 / Fold change vs veh, FAHD1 / RFU, BDP1 / Fold change vs veh, BDP1 / RFU, LRRCC1 / Fold change vs veh, LRRCC1 / RFU, ARID1A / Fold change vs veh, ARID1A / RFU, ZNF146 / Fold change vs veh, ZNF146 / RFU, ZNF330 / Fold change vs veh, ZNF330 / RFU, GPN3 / Fold change vs veh, GPN3 / RFU, C9orf123 / Fold change vs veh, C9orf123 / RFU, N4BP2L2 / Fold change vs veh, N4BP2L2 / RFU, ARFIP1 / Fold change vs veh, ARFIP1 / RFU, FAM179B / Fold change vs veh, FAM179B / RFU, BCL10 / Fold change vs veh, BCL10 / RFU, UHRF1BP1L / Fold change vs veh, UHRF1BP1L / RFU, BET1 / Fold change vs veh, BET1 / RFU, CNOT2 / Fold change vs veh, CNOT2 / RFU, ZNF268 / Fold change vs veh, ZNF268 / Fold change vs veh, ZNF507 / RFU, DGCR2 / Fold change vs veh, DGCR2 / RFU, WDSUB1 / Fold change vs veh, WDSUB1 / Fold change vs veh, HSP90B1 /// MIR3652 / RFU, ADSS / Fold change vs veh, ADSS / RFU, GK / Fold change vs veh, GK / RFU, ZNF148 / Fold change vs veh, ZNF148 / RFU, TAF9 / Fold change vs veh, TAF9 / RFU, SLC1A5 / Fold change vs veh, SLC1A5 / RFU, SLMO2 / Fold change vs veh, SLMO2 / RFU, ABCC4 / Fold change vs veh, ABCC4 / RFU, LOC101060439 /// RAP1B / Fold change vs veh, LOC101060439 /// RAP1B / RFU, RFX7 / Fold change vs veh, RFX7 / RFU, GTPBP10 / Fold change vs veh, GTPBP10 / RFU, CNEP1R1 / Fold change vs veh, CNEP1R1 / RFU, BIVM-ERCC5 /// ERCC5 / Fold change vs veh, BIVM-ERCC5 /// ERCC5 / RFU, ILF3 / Fold change vs veh, ILF3 / RFU 11762660_at / Fold change /veh 11762660_at / RFU VCAN (11757783_s_at) / Fold change /veh VCAN (11757783_s_at) / RFU DDX43 (11728927_at) / Fold change /veh DDX43 (11728927_at) / RFU KRT8 (11758188_x_at) / Fold change /veh KRT8 (11758188_x_at) / RFU NKD1 (11759106_at) / Fold change /veh NKD1 (11759106_at) / RFU SRD5A1 (11742802_a_at) / Fold change /veh SRD5A1 (11742802_a_at) / RFU TPSAB1 /// TPSB2 (11721975_s_at) / Fold change /veh TPSAB1 /// TPSB2 (11721975_s_at) / RFU GSTM3 (11746129_a_at) / Fold change /veh GSTM3 (11746129_a_at) / RFU IL23R (11737362_x_at) / Fold change /veh IL23R (11737362_x_at) / RFU TMEM51 (11727254_a_at) / Fold change /veh TMEM51 (11727254_a_at) / RFU PIWIL2 (11732686_x_at) / Fold change /veh PIWIL2 (11732686_x_at) / RFU ORM1 (11744905_x_at) / Fold change /veh ORM1 (11744905_x_at) / RFU CCDC152 (11743942_at) / Fold change /veh CCDC152 (11743942_at) / RFU ECM1 (11717891_a_at) / Fold change /veh ECM1 (11717891_a_at) / RFU IL23R (11748794_a_at) / Fold change /veh IL23R (11748794_a_at) / RFU TNFAIP8L3 (11732012_x_at) / Fold change /veh TNFAIP8L3 (11732012_x_at) / RFU MBOAT4 (11741988_at) / Fold change /veh MBOAT4 (11741988_at) / RFU 11764193_at / Fold change /veh 11764193_at / RFU TMEM53 (11763286_at) / Fold change /veh TMEM53 (11763286_at) / RFU MAGEB2 (11727129_at) / Fold change /veh MAGEB2 (11727129_at) / RFU TMEM200A (11744735_a_at) / Fold change /veh TMEM200A (11744735_a_at) / RFU CCDC152 (11751479_a_at) / Fold change /veh CCDC152 (11751479_a_at) / RFU FAM211A (11726209_a_at) / Fold change /veh FAM211A (11726209_a_at) / RFU RGS16 (11746705_a_at) / Fold change /veh RGS16 (11746705_a_at) / RFU VCAN (11755009_s_at) / Fold change /veh VCAN (11755009_s_at) / RFU RHOB (11743442_s_at) / Fold change /veh RHOB (11743442_s_at) / RFU RGS16 (11720943_a_at) / Fold change /veh RGS16 (11720943_a_at) / RFU RGS16 (11720944_at) / Fold change /veh RGS16 (11720944_at) / RFU, VPS4B / Fold change vs veh, VPS4B / RFU, CREB1 / Fold change vs veh, CREB1 / RFU, DNAJC13 / Fold change vs veh, DNAJC13 / RFU, GNAQ / Fold change vs veh, GNAQ / RFU, CDK5R1 / Fold change vs veh, CDK5R1 / RFU, ZRANB3 / Fold change vs veh, ZRANB3 / RFU, CUL4A / Fold change vs veh, CUL4A / RFU, CCNY / Fold change vs veh, CCNY / RFU, UFL1 / Fold change vs veh, UFL1 / RFU, COG3 / Fold change vs veh, COG3 / RFU, DIAPH2 / Fold change vs veh, DIAPH2 / RFU, SKA2 / Fold change vs veh, SKA2 / RFU, AFF3 / Fold change vs veh, AFF3 / RFU, LMF1 / Fold change vs veh, LMF1 / RFU, IPO11 / Fold change vs veh, IPO11 / RFU, DFFB / Fold change vs veh, DFFB / RFU, FOXP1 / Fold change vs veh, FOXP1 / RFU, CARD8 / Fold change vs veh, CARD8 / RFU, STRN3 / Fold change vs veh, STRN3 / RFU, ADK / Fold change vs veh, ADK / RFU, RASSF2 / Fold change vs veh, RASSF2 / RFU, WIPF1 / Fold change vs veh, WIPF1 / RFU, LARP1B / Fold change vs veh, LARP1B / RFU, RASA1 / Fold change vs veh, RASA1 / RFU, RB1 / Fold change vs veh, RB1 / RFU, PPFIA1 / Fold change vs veh, PPFIA1 / RFU, MAT2A / Fold change vs veh, MAT2A / RFU, CCT5 / Fold change vs veh, CCT5 / RFU, WDR92 / Fold change vs veh, WDR92 / RFU, CUX1 / Fold change vs veh, CUX1 / RFU, TTC7A / Fold change vs veh, TTC7A / RFU, TMEM135 / Fold change vs veh, TMEM135 / RFU, DEPTOR / Fold change vs veh, DEPTOR / RFU, CPM / Fold change vs veh, CPM / RFU, DNAJB6 / Fold change vs veh, DNAJB6 / RFU, CACNA2D3 / Fold change vs veh, CACNA2D3 / RFU, DTX4 / Fold change vs veh, DTX4 / RFU, TFCP2 / Fold change vs veh, TFCP2 / RFU, GMCL1 /// GMCL1P1 / Fold change vs veh, GMCL1 /// GMCL1P1 / RFU, AEBP2 / Fold change vs veh, AEBP2 / RFU, SNHG1 /// SNORD22 /// SNORD25 /// SNORD26 /// SNORD27 /// SNORD28 /// SNORD29 /// SNORD31 / Fold change vs veh, SNHG1 /// SNORD22 /// SNORD25 /// SNORD26 /// SNORD27 /// SNORD28 /// SNORD29 /// SNORD31 / Fold change (Aza/veh), C12orf56 (ProbeSet 11735607_a_at) / Fold change (ACY-1035/veh), C12orf56 (ProbeSet 11735607_a_at) / Fold change (Aza/veh), FGFR1OP (ProbeSet 11751329_s_at) / Fold change (ACY-1035/veh), FGFR1OP (ProbeSet 11751329_s_at) / Fold change (Aza/veh), VPS36 (ProbeSet 11739960_a_at) / Fold change (ACY-1035/veh), VPS36 (ProbeSet 11739960_a_at) / RFU SYPL1 (11715823_x_at) / Fold change /veh SYPL1 (11715823_x_at) / RFU IGFBP7 (11715501_s_at) / Fold change /veh IGFBP7 (11715501_s_at) / RFU REEP3 (11722064_at) / Fold change /veh REEP3 (11722064_at) / RFU IGLL1 (11728026_x_at) / Fold change /veh IGLL1 (11728026_x_at): dose or concentration left out as unconfirmed
Details: ProbeSet 11725100_s_at; LIST B

## Nc1ccc(-c2cccs2)cc1NC(=O)c1ccc2c(c1)cc(C1CC1)n2CCN1CCOCC1 [ACY-1035]
  Fold change vs veh, ESF1: 0.88
